Measurements as given in article PMC11741150, “Synthesis and In Vitro Antileishmanial Efficacy of Novel Ethylene Glycol Analogues of Benzothiadiazine‐1,1‐dioxide” (Chemistry & Biodiversity, 2024).
Several values for one entry are separate records, joined by “and”; a condition that tells them apart may be missing. Equal entries are not always repeated.

Columns and labels:
[1] = system: L. donovani strain 9515 intramacrophage amastigotes; assay: Intramacrophage antileishmanial growth inhibition assay; assay type: cell-based; conditions: Leishmania donovani, read-out: Anti‐amastigote growth inhibition (%)
Procedure: (§1) A modified resazurin assay[47, 48] and the two Leishmania strains were also used to assess the efficacy of synthesised compounds against intramacrophage parasites.
(§2) Human monocytic leukemia (THP‐1) cells were cultured in RPMI 1640 medium with L‐glutamine (Sigma Aldrich) supplemented with, 1 % penicillin/streptomycin solution (Lonza), 10 % fetal bovine serum (FBS; Thermofisher Scientific) and 2 g/L sodium bicarbonate (Sigma Aldrich). The cells were maintained in a humidified environment at 37 °C and 5 % CO2.
(§3) For the intramacrophage assay, a 500 000 cells/mL THP‐1 cell suspension was prepared, 25 ng/mL phorbol 12‐myristate 13‐acetate (PMA) added and the suspension seeded in 96 well plates (Nunc, Thermofisher Scientific) at 200 μL/well. Cell‐free growth medium was included as the blank. The plates were incubated for 48 hours in a humidified environment at 37 °C and 5 % CO2 to encourage the differentiation of the suspended cells to adherent macrophages.
(§4) To eliminate non‐adherent cells after the PMA treatment, the plates were carefully washed once with warm PBS. Then, a premade promastigote suspension ([…]) was added. The suspension consisted of stationary phase promastigotes in THP‐1 cell growth medium, with a multiplicity of infection (MOI) of 30 : 1. Parasite‐free medium was also added to selected THP‐1 cell‐containing wells to serve as parasite blank. The plates were thoroughly rinsed four times with warm PBS to get rid of extracellular parasites after being cultured for 24 hours to encourage macrophage infection. The cells were then treated with 160 μL of growth medium and 40 μL of either solvent (parasite blank and negative control with parasites) or 40 μL of compound solutions. For a dual‐point activity screening, 10 μM and 2 mM of compound were prepared in separate plates. Amphothericin B (10 μM) served as the standard antileishmanial drug. The plates were incubated for 72 hours in a humidified environment at 37 °C and 5 % CO2.
(§5) For the plates treated with 10 μM of compound, any serum and extracellular promastigotes that remained were carefully removed from the wells by rinsing with warm PBS. The wells were then treated with 20 μL of 0.05 % sodium dodecyl sulphate (SDS; Sigma Aldrich) in PBS for 30 sec to lyse the macrophages. Lysis was terminated with the addition of 180 μL promastigote growth medium with 10 % FBS. For the resazurin assay, 10 μL of resazurin solution (0.025 % in PBS) was added to each well and the plates were further incubated at 37 °C in for 72 hours in the dark to measure amastigote recovery to proliferative promastigotes.
(§6) A Thermofisher Scientific's GO Multiscan plate reader was used to measure absorbance at 570 nm and 600 nm. SkanIt 4.0 Research Edition software was used to perform the data analysis for every biological replicate. Background absorbance (600 nm) was subtracted from the 570 nm absorbance data and the mean absorbance was computed.
(§7) For the activity screening, the following formula was used to determine growth inhibition percentage: Growthinhibition%=100-[(ΔAbssample-ΔAbsblank)/(ΔAbsnegcontrol-ΔAbsblank)X100]

[2] = system: Leishmania donovani (strain 9515 (MHOM/IN/95/9515)) promastigotes; assay: Antipromastigote resazurin assay; assay type: cell-based; conditions: for IC50 / inhibition at 10 µM: Leishmania donovani; for IC50: promastigotes, maximum concentration 2 mM, ±standard deviation, read-out: L. donovani 9515 antipromastigote IC50; for inhibition at 10 µM: L. donovani strain 9515 promastigotes, read-out: Antipromastigote growth inhibition (%)
Procedure: The antipromastigote activity of synthesised compounds was evaluated using a modified method of the resazurin assay[45, 46] against two Leishmania strains.
Leishmania donovani (strain 9515 (MHOM/IN/95/9515)) and L. major (strain NIH S (MHOM/SN/74/Seidman)) promastigotes were cultured in M199 with Hank's salts and 0.68 mM L‐glutamine (Sigma Aldrich) supplemented with 0.0005 % hemin, 0.0001 % biotin, 0.1 mM adenine (Sigma Aldrich), 10 % fetal bovine serum, 50 U/mL Penicillin/Streptomycin solution, 4.2 mM sodium bicarbonate and 25 mM Hepes buffer. The promastigotes were maintained at an adjusted pH of 7.3–7.4 growth medium at 26 °C. […] Amphothericin B (10 μM) served as the standard antileishmanial drug and parasite‐free growth medium was included as the blank. The plates were incubated for 48 hours at 26 °C in humidified environment.
Following the initial incubation, 50 μL of resazurin solution (0.01 % in PBS) was added to each well and the plates underwent further incubation at 26 °C for 24 hours in the dark. A Thermofisher Scientific's GO Multiscan plate reader was used to measure absorbance at 570 nm and 600 nm. SkanIt 4.0 Research Edition software was used to perform the data analysis for every biological replicate. Background absorbance (600 nm) was subtracted from the 570 nm absorbance data and the mean absorbance was computed. The cell viability and data analysis were performed as indicated in the cytotoxicity assay.

[3] = system: L. major (strain NIH S (MHOM/SN/74/Seidman)) promastigotes; assay: Antipromastigote resazurin assay; assay type: cell-based, Leishmania major; conditions: for inhibition at 10 µM / IC50: Leishmania major; for inhibition at 10 µM: L. major strain IR‐173 (as headed) promastigotes, read-out: Antipromastigote growth inhibition (%); for IC50: promastigotes, maximum concentration 2 mM, ±standard deviation
[4] = system: Vero cells; assay: Cytotoxicity resazurin assay; assay type: cell-based; conditions: Chlorocebus sabaeus, 48 hours, ±standard deviation, maximum concentration 2 mM
Procedure: The cytotoxicity of the synthesised compounds was evaluated using the resazurin assay. The assay involves live cells converting oxidized blue resazurin dye to pink, highly fluorescent resorufin through irreversible enzymatic reduction.[44] This non‐toxic reagent is a useful instrument for determining drug toxicity and cell growth.
Dulbecco's modified Eagle's medium (DMEM) with high glucose (Separations) supplemented with 1 % L‐glutamine, non‐essential amino acids, and penicillin‐streptomycin (Sigma Aldrich), and 10 % fetal bovine serum (Thermofisher Scientific) was used to cultivate Vero cells. The cells were kept at 37 °C and 5 % CO2 in a humidified environment. For the assay, 96 well plates were prepared by pipetting 100 μL of cell suspension (60 000 cells/mL) per well and incubating the plates for 24 hours. The cells were then treated with seven two‐fold concentration dilutions of: (1) 1 μM emetine dihydrochloride (Sigma Aldrich) solution (positive control); (2) 2 mM experimental compound solutions. Cell‐free growth medium was included as a blank. The treated plates were incubated for 48 hours.
To initiate the resazurin assay, 50 μL of sterile‐filtered resazurin sodium salt (Sigma Aldrich) solution (0.01 % in phosphate‐buffered saline (PBS)) was added to the prepared plates and then incubated for 2 hours. A Thermofisher Scientific's GO Multiscan plate reader was used to measure the absorbance at 570 and 600 nm. SkanIt 4.0 Research Edition software was used to perform the data analysis for every biological replicate. After subtracting background absorbance (600 nm) from the 570 nm absorbance data, the mean absorbance was computed, and the percentage of viable cells was estimated using the formula below: Cellviability%=(ΔAbssample-ΔAbsblank)/(ΔAbsnegcontrol-ΔAbsblank)X100
GraphPad Prism 5 was used to calculate the IC50 and Z‐score for each compound's biological replicate. The mean IC50 of the biological replicates and standard deviation (SD) was calculated to determine the final IC50 of each compound.

[5] = system: L. major intramacrophage amastigotes; assay: Intramacrophage antileishmanial growth inhibition assay; assay type: cell-based, Leishmania major; conditions: Leishmania major; L. major strain IR‐173 (as headed) intramacrophage amastigotes, 10 μM; read-out: Anti‐amastigote growth inhibition (%)
Procedure: as §1, §2, §3, §4, §5
Any remaining extracellular promastigotes were afterwards carefully removed from the wells by rinsing with warm PBS. The wells were then treated with 50 μL of resazurin solution (0.01 % in PBS) and the plates were further incubated at 37 °C for 4 hours in the dark to assess host cell viability.
as §6, §7

[6] = system: Vero; parameters: method as in PMID 33491807; conditions: cited from earlier work
[7] = system: L. donovani 1S promastigotes; parameters: method as in PMID 33491807; conditions: read-out: L. donovani 1S promas. IC50; cited from earlier work
[8] = system: L. donovani strain 1S amastigote; parameters: method as in PMID 33491807; conditions: previous study; cited from earlier work

Compound | melting point | IC50 [2] | IC50 [3] | inhibition at 10 µM [1] | SI1: Selectivity index=IC50 Vero/L. donovani 9515 antipromastigote IC50 [2] | inhibition at 10 µM [2] | SI2: Selectivity index=IC50 Vero/L. major antipromastigote IC50 [3] | inhibition at 10 µM [3] | IC50 [4] | inhibition at 10 µM [5] | IC50 [6] | IC50 [7] | activity against L. donovani strain 1S amastigote [8]
O=S1(=O)c2ccccc2N=CN1CCO [Compound 2, 2‐(2‐Hydroxyethyl)‐2H‐benzo[e][1,2,4]thiadiazine‐1,1‐dioxide] | 167 to 170 °C | 839 ± 41.9 µM |  | 0% | 0.90 | 0% | 0.70 | 0% | 752 ± 174 µM | 0% |  |  | 
COCCN1C=Nc2ccccc2S1(=O)=O [Compound 3, 2‐(2‐Methoxyethyl)‐2H‐benzo[e][1,2,4]thiadiazine‐1,1‐dioxide] |  | 482 ± 7.57 µM | 701 ± 40.8 µM | 0% |  | 2% |  | 0% | 502 ± 152 µM | 0% |  |  | 
O=S1(=O)NC=Nc2ccccc21 [Compound 1, 2H‐Benzo[e][1,2,4]thiadiazine‐1,1‐dioxide] | 223 to 226 °C | 612 ± 30.9 µM | 861 ± 46.5 µM | 0% | 0.53 | 10% | 0.38 | 0% | 323 ± 215 µM | 0% | > 100 µM | < 10 µM and 7.33 µM | sub‐micromolar activity

Now from value to compound, other results behind:

melting point | IC50 [2] | IC50 [3] | Compound | inhibition at 10 µM [1] | SI1: Selectivity index=IC50 Vero/L. donovani 9515 antipromastigote IC50 [2] | inhibition at 10 µM [2] | SI2: Selectivity index=IC50 Vero/L. major antipromastigote IC50 [3] | inhibition at 10 µM [3] | IC50 [4] | inhibition at 10 µM [5] | IC50 [6] | IC50 [7] | activity against L. donovani strain 1S amastigote [8]
 | 701.6 ± 4.17 µM | 919 ± 22.3 µM | COCCOCCN1C=Nc2ccccc2S1(=O)=O [Compound 4, 2‐[2‐(2‐Methoxyethoxy)ethyl]‐2H‐benzo[e][1,2,4]thiadiazine‐1,1‐dioxide] | 0% |  | 0% |  | 0% | 988 ± 10.6 µM | 0% |  |  | 
217 to 220 °C | 906 ± 62.1 µM |  | O=S1(=O)c2ccccc2N=CN1CCOc1ccc(Br)cc1 [Compound 10, 2‐[2‐(4‐Bromophenoxy)ethyl]‐2H‐benzo[e][1,2,4]thiadiazine‐1,1‐dioxide] | 0% | 0.73 | 0% | 0.47 | 0% | 663 ± 24 µM | 0% |  |  | 
 | 333 ± 45.1 µM | 586 ± 47 µM | CCOCCN1C=Nc2ccccc2S1(=O)=O [Compound 6, 2‐(2‐Ethoxyethyl)‐2H‐benzo[e][1,2,4]thiadiazine‐1,1‐dioxide] | 0% |  | 2% |  | 0% | 470 ± 225 µM | 0% |  |  | 
